According to patent US20250270208A1, “BICYCLIC HETEROCYCLES AS MRGPRX2 ANTAGONISTS” (Incyte Corporation, priority 2023, published 2025):
Values belong to the compound of their own block, whether it stands above or below them.

Legend:
Assay type in all cases: cell-based
[1] = target: T1, MRGPRX2 (Homo sapiens, UniProt Q96LB1); test: MRGPRX2 IP1 HTRF assay; set-up: host or cells: CHO-K1; settings: CHO-K1 cells stably expressing human MRGPRX2; IP1 accumulation; agonist Cortistatin 14 1 μM
T1 sequence (Q96LB1 1-330): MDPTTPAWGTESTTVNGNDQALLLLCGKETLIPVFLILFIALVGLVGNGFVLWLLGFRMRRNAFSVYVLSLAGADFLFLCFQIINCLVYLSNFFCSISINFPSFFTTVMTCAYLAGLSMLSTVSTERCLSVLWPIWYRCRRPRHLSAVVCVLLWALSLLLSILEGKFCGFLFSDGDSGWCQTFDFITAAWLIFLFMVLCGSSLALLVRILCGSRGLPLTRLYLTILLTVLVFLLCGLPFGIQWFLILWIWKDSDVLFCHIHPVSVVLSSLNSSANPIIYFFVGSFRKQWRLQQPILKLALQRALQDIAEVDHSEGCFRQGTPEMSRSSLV
Description: This assay measures compound inhibition of myo-Inositol 1 phosphate (IP1) accumulation in CHO-K1 cells. Chinese hamster ovary (CHO-K1) cells stably expressing human MRGPRX2 were purchased from GenScript (Piscataway, NJ).
For the HTRF IP1 determination, an IP-One GqKit (Perkin Elmer Cisbio, Waltham, MA), which includes all reagents and buffers in this protocol, was used. The cells were maintained in culture medium (Ham's F-12K) containing 10% (v/v) FBS, and 200 μg/mL Zeocin. For the assay, the cells were harvested and resuspended in culture medium with 2% FBS and without Zeocin, then were passed through a 40 μm filter. Cells were added at 20000 cells in a 5 μL/well to a 384-well white small volume cell culture plate (Greiner VWR, Radnor, PA) which contained 50 nL/well of test compound serially diluted at a selected concentration range in DMSO. 5 μL/well of prepared 2× Stimulation Buffer 2 was then added to plates and was incubated at 37° C. with 5% CO2 for 1 h. 5 μL/well of agonist Cortistatin 14 (Bio-TechneR&D Systems, Minneapolis, MN) in 1× Stimulation Buffer 2, for a 1 μM final concentration, was then added to plates and incubated at 37° C. with 5% CO2 for 1 h. 6 μL/well of 1:20 diluted Detection Reagent Mix (d2 and Cryptate) was added to the plates and incubated for 1 h in the dark. Plates were read on the PHERAstar microplate reader (BMG Labtech Cary, NC) to determine the HTRF ratio of the acceptor and donor emission signals. The IP1 concentrations were calculated from a standard curve following the IP-One GQ kit instructions. Wells with DMSO only and wells with high concentration of reference antagonist were used as controls for normalization. Compound IC50 curves were globally fitted with 3- or 4-parameter Hill equation in a Genedata Screener (Genedata Basel, Switzerland).

[2] = target: T1, MRGPRX2; test: MRGPRX2 FLIPR calcium mobilization assay; set-up: host or cells: CHO-K1; settings: CHO-K1 cells stably expressing human MRGPRX2; Ca2+ release; agonist Cortistatin-14 at EC80
Description: Chinese hamster ovary (CHO-K1) cells stably expressing human MRGPRX2 were purchased from Genescript (Piscataway, NJ). The cells were maintained in culture medium (Ham's F-12K) containing 10% (v/v) FBS, 200 μg/mL Zeocin, 100 units/mL penicillin G and 100 μg/mL streptomycin (Life Technologies, Carlsbad, CA). For the assay, the cells were harvested and resuspended with culture medium without Zeocin before plating at 8000 cells per well in 20 μL in 384-well black clear bottom cell culture plates (VWR, Radnor, PA). After 24 hour culture at 37° C. and 5% CO2, the cells were loaded with 20 μL/well of calcium dye (FLIPR Calcium 6 Assay Kit, Molecular Devices, San Jose, CA) diluted in loading buffer (1× Hank's Balanced Salt Solution (HBSS), 5 mM probenecid, 20 mM 4-(2-hydroxyethyl)-1-piperazineethanesulfonic acid (HEPES), pH 7.4, VWR, Radnor, PA) followed with 45 min incubation at 37° C. and 40 min. at r.t. in the dark. Cells were then treated with the addition of 10 uL/well test compounds with a range of increasing concentrations diluted in the assay buffer (1×HBSS, 20 mM HEPES, pH 7.4, VWR, Radnor, PA) with FLIPR Penta (Molecular Devices. San Jose, CA) and incubated for 30 min. at r.t. Ca^2+ release was measured with FLIPR Penta with 10 s basal fluorescence measurement, then 12.5 μL of 5× agonist Cortistatin-14 (Tocris, Minneapolis, MN) at final concentration corresponding to the EC80 were added followed with continued fluorescence signal monitoring for an additional 110 s. The base line adjusted (median of first 10 s base line) max value of the Relative Fluorescence Unit (RFU) was plotted against compound concentrations. Wells with no compound were served as the positive controls, and wells with high concentration of reference antagonist were used as negative controls. IC50 curves were globally fitted with 3- or 4-parameter Hill equation in a Genedata Screener (Genedata Basel, Switzerland).

[3] = target: T1, MRGPRX2; test: MRGPRX2 β-Arrestin assay; set-up: host or cells: PathHunter CHO-K1; settings: PathHunter CHO-K1 MRGPRX2 β-Arrestin cell line; agonist Cortistatin 14 0.25 μM
From the text: This assay measures compound inhibition of β-Arrestin recruitment, which is part of the G protein-independent pathway that results from the ligand-activated GPCR phosphorylation by specific GPCR kinases. The PathHunter CHO-K1 MRPGRX2 β-Arrestin Cell line stably expressing ProLink tagged MRGPRX2 and Enzyme Acceptor Tagged β-Arrestin was purchased from Eurofins DiscoverX, (Fremont, CA).
The cells were maintained in culture medium from the Europhins DiscoverX Cell Culture Kit-107 which includes FBS, hygromycin B and G418. For the assay, the cells were harvested and were resuspended with Cell Plating Reagent 2 (Eurofins DiscoverX). Cells were added 10000 cells in 25 μL/well to a 384-well black cell culture plate (Greiner VWR, Radnor, PA) which contained 125 nL/well of compound at a selected serially diluted concentration range or DMSO. The plate was incubated at 37° C. with 5% CO2 for 1 h. 2 μL/well of agonist Cortistatin 14 was diluted in Protein Dilution Buffer, (Eurofins DiscoverX) for a final concentration of 0.25 μM, was added and the plate was incubated at 37° C. with 5% CO2 for 90 min. 14 μL/well of Detection Reagent Mix (PathHunter Detection Kit, Eurofins DiscoverX) was added to the plates and further incubated for 1 h in the dark. Plates were read on the PHERAstar microplate reader (BMG Labtech Cary, NC) measuring luminescence 0.1 to 1 s per well. Data was normalized using DMSO only wells and wells with high concentration of reference antagonist as controls. Compound IC50 curves were globally fitted with 3- or 4-parameter Hill equation in a Genedata Screener (Genedata Basel, Switzerland).

SMILES: FC(F)(F)c1cc(N[C@H]2CCC[C@@H](Nc3nccn4cncc34)C2)c2cc(Cl)ccc2n1 [Example 9, (1S,3R)-N^1-(6-Chloro-2-(trifluoromethyl)quinolin-4-yl)-N^3-(imidazo[1,5-a]pyrazin-8-yl)cyclohexane-1,3-diamine]
IC50 [1]: 0.1 to 100 nM | IC50 [2]: 0.1 to 100 nM | IC50 [3]: 0.1 to 100 nM

SMILES: Fc1ccc2nc(C(F)(F)F)cc(N[C@H]3CCC[C@@H](Nc4nnc5ccccn45)C3)c2c1 [Example 33, (1R,3S)-N^1-([1,2,4]Triazolo[4,3-a]pyridin-3-yl)-N^3-(6-fluoro-2-(trifluoromethyl)quinolin-4-yl)cyclohexane-1,3-diamine]
IC50 [1]: 0.1 to 100 nM | IC50 [2]: 0.1 to 100 nM | IC50 [3]: 0.1 to 100 nM

SMILES: Cn1cnc2ccnc(N[C@H]3CC[C@@H](Nc4cc(C(F)(F)F)nc5ccccc45)CC3)c21 [Example 22, (1s,4s)-N^1-(3-Methyl-3H-imidazo[4,5-c]pyridin-4-yl)-N^4-(2-(trifluoromethyl)quinolin-4-yl)cyclohexane-1,4-diamine]
IC50 [1]: 100 to 1000 nM | IC50 [2]: 0.1 to 100 nM | IC50 [3]: 0.1 to 100 nM

SMILES: Cn1cnc2ccnc(N[C@H]3CC[C@@H](Nc4cc(C(F)(F)F)nc5ccc(F)cc45)CC3)c21 [Example 23, (1s,4s)-N^1-(6-Fluoro-2-(trifluoromethyl)quinolin-4-yl)-N^4-(3-methyl-3H-imidazo[4,5-c]pyridin-4-yl)cyclohexane-1,4-diamine]
IC50 [1]: 0.1 to 100 nM | IC50 [2]: 0.1 to 100 nM | IC50 [3]: 0.1 to 100 nM

SMILES: Cn1ncc2c(N[C@@H]3CCC[C@H](Nc4cc(C(F)(F)F)nc5ccc(Cl)cc45)C3)nccc21 [Example 19, (1S,3R)-N^1-(6-Chloro-2-(trifluoromethyl)quinolin-4-yl)-N^3-(1-methyl-1H-pyrazolo[4,3-c]pyridin-4-yl)cyclohexane-1,3-diamine]
IC50 [1]: 0.1 to 100 nM | IC50 [2]: 0.1 to 100 nM | IC50 [3]: 0.1 to 100 nM

SMILES: Cn1cnc2ccnc(N[C@@H]3CCC[C@H](Nc4cc(C(F)(F)F)nc5ccc(Br)cc45)C3)c21 [Example 16, (1S,3R)-N^1-(6-Bromo-2-(trifluoromethyl)quinolin-4-yl)-N^3-(3-methyl-3H-imidazo[4,5-c]pyridin-4-yl)cyclohexane-1,3-diamine]
IC50 [1]: 0.1 to 100 nM | IC50 [2]: 0.1 to 100 nM | IC50 [3]: 0.1 to 100 nM

SMILES: FC(F)(F)c1cc(N[C@H]2CCC[C@@H](Nc3nnc4n3CCOC4)C2)c2cc(Cl)ccc2n1 [Example 36, (1S,3R)-N^1-(6-Chloro-2-(trifluoromethyl)quinolin-4-yl)-N^3-(5,6-dihydro-8H-[1,2,4]triazolo[3,4-c][1,4]oxazin-3-yl)cyclohexane-1,3-diamine]
IC50 [1]: 0.1 to 100 nM | IC50 [2]: 0.1 to 100 nM | IC50 [3]: 0.1 to 100 nM

SMILES: Cn1cnc2ccnc(N[C@@H]3CCC[C@H](Nc4cc(C(F)(F)F)nc5ccccc45)C3)c21 [Example 15, (1R,3S)-N^1-(3-Methyl-3H-imidazo[4,5-c]pyridin-4-yl)-N^3-(2-(trifluoromethyl)quinolin-4-yl)cyclohexane-1,3-diamine]
IC50 [1]: 100 to 1000 nM | IC50 [2]: 0.1 to 100 nM | IC50 [3]: 0.1 to 100 nM

SMILES: Cc1cc2c(N[C@@H]3CCC[C@H](Nc4cc(C(F)(F)F)nc5ccc(Cl)cc45)C3)nccn2n1 [Example 11, (1S,3R)-N^1-(6-Chloro-2-(trifluoromethyl)quinolin-4-yl)-N^3-(2-methylpyrazolo[1,5-a]pyrazin-4-yl)cyclohexane-1,3-diamine]
IC50 [1]: 0.1 to 100 nM | IC50 [2]: 0.1 to 100 nM | IC50 [3]: 0.1 to 100 nM

SMILES: FC(F)(F)c1cc(N[C@H]2CCC[C@@H](Nc3nnc4n3CCCC4)C2)c2cc(Cl)ccc2n1 [Example 35, (1S,3R)-N^1-(6-Chloro-2-(trifluoromethyl)quinolin-4-yl)-N^3-(5,6,7,8-tetrahydro-[1,2,4]triazolo[4,3-a]pyridin-3-yl)cyclohexane-1,3-diamine]
IC50 [1]: 0.1 to 100 nM | IC50 [2]: 0.1 to 100 nM | IC50 [3]: 0.1 to 100 nM

Other lines, results leading:

IC50 [1]: 0.1 to 100 nM | IC50 [2]: 0.1 to 100 nM | IC50 [3]: 0.1 to 100 nM
SMILES: FC(F)(F)c1cc(N[C@H]2CCC[C@@H](Nc3ncnc4ncccc34)C2)c2cc(Cl)ccc2n1 [Example 26, (1S,3R)-N^1-(6-Chloro-2-(trifluoromethyl)quinolin-4-yl)-N^3-(pyrido[2,3-d]pyrimidin-4-yl)cyclohexane-1,3-diamine]

IC50 [1]: 0.1 to 100 nM | IC50 [2]: 0.1 to 100 nM | IC50 [3]: 0.1 to 100 nM
SMILES: Fc1ccc2nc(C(F)(F)F)cc(N[C@H]3CCC[C@@H](Nc4nccc5ncccc45)C3)c2c1 [Example 25, (1S,3R)-N^1-(6-Fluoro-2-(trifluoromethyl)quinolin-4-yl)-N^3-(1,6-naphthyridin-5-yl)cyclohexane-1,3-diamine]

IC50 [1]: 0.1 to 100 nM | IC50 [2]: 0.1 to 100 nM | IC50 [3]: 0.1 to 100 nM
SMILES: FC(F)(F)c1cc(N[C@H]2CC[C@@H](Nc3nccc4ncccc34)CC2)c2cc(Cl)ccc2n1 [Example 13, (1s,4s)-N^1-(6-Chloro-2-(trifluoromethyl)quinolin-4-yl)-N^4-(1,6-naphthyridin-5-yl)cyclohexane-1,4-diamine]

IC50 [1]: 0.1 to 100 nM | IC50 [2]: 0.1 to 100 nM | IC50 [3]: 0.1 to 100 nM
SMILES: FC(F)(F)c1cc(N[C@H]2CCC[C@@H](Nc3nccc4ncccc34)C2)c2cc(Cl)ccc2n1 [Example 5, (1S,3R)-N^1-(6-Chloro-2-(trifluoromethyl)quinolin-4-yl)-N^3-(1,6-naphthyridin-5-yl)cyclohexane-1,3-diamine]

IC50 [1]: 100 to 1000 nM | IC50 [2]: 0.1 to 100 nM | IC50 [3]: 0.1 to 100 nM
SMILES: Cn1cc2c(N[C@@H]3CCC[C@H](Nc4cc(C(F)(F)F)nc5ccc(Cl)cc45)C3)nccc2n1 [Example 1, (1S,3R)-N^1-(6-Chloro-2-(trifluoromethyl)quinolin-4-yl)-N^3-(2-methyl-2H-pyrazolo[4,3-c]pyridin-4-yl)cyclohexane-1,3-diamine]
